Values after ≈ are worked out from the molar mass of the structure shown. *1 amine or outer side, *2 acyl side, *3 side chain or, on linkers, in order; H or OH if unused. Where a SMILES comes first, the peptide text is derived from it. Bridges are numbered along the chain shown (N, C = ends). The star is where a group is joined. X1 = NC(=O)[C@@H](CS[*:2])C(=O)[*:1]; X2 = CC[C@H](C)[C@H](NO*)C(=O)O

The test system of assay [1] is Lipopolysaccharide (LPS). Nature of the assay: Displacement of dansyl-PMB from LPS by isothermal titration calorimetry. The settings on record: for IC50: read-out: IC50.
The subject of assay [2] is Pseudomonas aeruginosa. Briefly: Antimicrobial activity against Pseudomonas aeruginosa. In kind it is functional, organism-based.
The test system of assay [3] is Salmonella enterica. Briefly: Antimicrobial activity against Salmonella enterica. It counts as functional.
The subject of assay [4] is Escherichia coli. Briefly: Antimicrobial activity against Escherichia coli. In kind it is functional.

With `CC[C@H](C)[C@H](N)C(=O)N[C@@H](CCCCN)C(=O)N[C@H](C(=O)N[C@@H](CCCCN)C(=O)N[C@@H](CCCCN)C(=O)N[C@@H](Cc1ccccc1)C(=O)N[C@@H](CC(C)C)C(=O)N[C@@H](CCCCN)C(=O)N[C@@H](CCCCN)C(=O)N[C@H](C(=O)O)[C@@H](C)O)[C@@H](C)O` (H-IKTKKFLKKT-OH), the Ka in assay [1] was 0.2 10^5/M.

As a reminder, the IC50 is the concentration that inhibits the measured activity by half. The MIC is the lowest concentration that inhibits growth of the organism. Regarding `CC(C)C[C@@H]1NC(=O)[C@@H](Cc2c[nH]c3ccccc23)NC(=O)[C@H](CCN)NC(=O)[C@@H](NC(=O)[C@H](CCN)NC(=O)[C@@H](N)[C@@H](C)O)CCNC(=O)[C@H]([C@@H](C)O)NC(=O)[C@H](CCN)NC(=O)[C@H](CCN)NC1=O`, in assay [1], the IC50 was 4 µM. In assay [2], this compound registered an MIC of at least 500 µg/mL.

For `C[C@@H](O)[C@H](N)C(=O)N[C@@H](CCN)C(=O)N[C@H]1CCNC(=O)[C@H]([C@@H](C)O)NC(=O)[C@H](CCN)NC(=O)[C@H](CCN)NC(=O)[C@H](Cc2ccccc2)NC(=O)[C@@H](Cc2ccccc2)NC(=O)[C@H](CCN)NC1=O`, the IC50 in assay [1] amounted to 5 µM. For the same compound, in assay [2], the MIC was at least 250 µg/mL.

As to `C[C@@H]1NC(=O)[C@@H](Cc2ccccc2)NC(=O)[C@H](CCN)NC(=O)[C@@H](NC(=O)[C@H](CCN)NC(=O)[C@@H](N)[C@@H](C)O)CCNC(=O)[C@H]([C@@H](C)O)NC(=O)[C@H](CCN)NC(=O)[C@H](CCN)NC1=O`, the IC50 in assay [1] turned out to be 12 µM. For the same compound, in assay [2], the MIC is at least 250 µg/mL.

As to `CC(C)C[C@@H]1NC(=O)[C@@H](Cc2ccc(O)cc2)NC(=O)[C@H](CCN)NC(=O)[C@@H](NC(=O)[C@H](CCN)NC(=O)[C@@H](N)[C@@H](C)O)CCNC(=O)[C@H]([C@@H](C)O)NC(=O)[C@H](CCN)NC(=O)[C@H](CCN)NC1=O`, the IC50 in assay [1] came to 25 µM. The MIC in assay [2] is at least 500 µg/mL.

Regarding `CC[C@H](C)[C@H](NOC(=O)[C@H](CCCCN)NC(=O)CNC(=O)[C@@H](NC(=O)[C@H](CCCCN)NC(=O)[C@@H]1CSSC[C@H](C(N)=O)C(=O)N[C@@H](CCCCN)C(=O)N[C@@H](Cc2ccccc2)C(=O)N[C@@H](CC(C)C)C(=O)N[C@@H](CCCCN)C(=O)N[C@@H](CCCCN)C(=O)N1)[C@@H](C)O)C(=O)O` (KFLKKCKTGK-X2; linker N-6 via X1), the Ka in assay [1] was 0.29 10^7/M. The MIC in assay [3] is above 1000 µg/mL.

On to `CC(C)C[C@@H]1NC(=O)[C@@H](Cc2ccccc2)NC(=O)[C@H](CCN)NC(=O)[C@@H](NC(=O)[C@H](CCN)NC(=O)[C@@H](NC(=O)[C@H](CCN)NC(=O)Cc2ccc(-c3ccccc3)cc2)[C@@H](C)O)CCNC(=O)[C@H]([C@@H](C)O)NC(=O)[C@H](CCN)NC(=O)[C@H](CCN)NC1=O` [4-BIPHENYL ACETIC ACID POLYMIXIN B], for which the MIC in assay [2] is 1 µM; in assay [3], 1 µM; in assay [4] it was 0.5 µM (≈ 0.629 µg/mL).

As to `CC(C)C[C@@H]1NC(=O)[C@@H](CC(C)C)NC(=O)[C@H](CCN)NC(=O)[C@@H](NC(=O)[C@H](CCN)NC(=O)[C@@H](NC(=O)[C@H](CCN)NC(=O)CCCC2CCCCC2)[C@@H](C)O)CCNC(=O)[C@H]([C@@H](C)O)NC(=O)[C@H](CCN)NC(=O)[C@H](CCN)NC1=O`, the values for the MIC in assay [2], in assay [3] and in assay [4] were 1 µM, 1 µM and 2 µM (≈ 2.36 µg/mL), respectively.

Turning to `CC(C)C[C@@H]1NC(=O)[C@@H](Cc2ccccc2)NC(=O)[C@H](CCN)NC(=O)[C@@H](NC(=O)[C@H](CCN)NC(=O)[C@@H](NC(=O)[C@H](CCN)NC(=O)C(c2ccccc2)C2CCCC2)[C@@H](C)O)CCNC(=O)[C@H]([C@@H](C)O)NC(=O)[C@H](CCN)NC(=O)[C@H](CCN)NC1=O` (stereo partly drawn) [CYCLOPENTYLPHENYL ACETIC ACID POLYMIXIN B], the MIC is 2 µM in assay [2], 8 µM in assay [3] and 8 µM (≈ 10 µg/mL) in assay [4].

For `CC(C)C[C@@H]1NC(=O)[C@@H](CC(C)C)NC(=O)[C@H](CCN)NC(=O)[C@@H](NC(=O)[C@H](CCN)NC(=O)[C@@H](NC(=O)[C@H](CCN)NC(=O)c2ccc3cc4ccccc4cc3c2)[C@@H](C)O)CCNC(=O)[C@H]([C@@H](C)O)NC(=O)[C@H](CCN)NC(=O)[C@H](CCN)NC1=O`, the MIC in assay [2] was determined as 2 µM; in assay [3], 2 µM; in assay [4], 4 µM (≈ 4.93 µg/mL).
